Laboratory results from ChEMBL document CHEMBL6078622, “Enhancing outer membrane permeability of tetracycline antibiotics in P. aeruginosa using TOB-CIP conjugates” (RSC Med Chem, 2024).
Values after ≈ are worked out from the molar mass of the structure shown. Active and inactive are the calls of the source. No cut-off for these calls is given here.

How the values were obtained:
[1] = tested on: Pseudomonas aeruginosa; experiment: Antibacterial activity against Pseudomonas aeruginosa PA262 assessed as inhibition of visible bacterial growth by CLSI based broth-microdilution method; assay type: functional
[2] = tested on: Pseudomonas aeruginosa; experiment: Antibacterial activity against Pseudomonas aeruginosa PA264 assessed as inhibition of visible bacterial growth by CLSI based broth-microdilution method; assay type: functional
[3] = tested on: Pseudomonas aeruginosa; experiment: Antibacterial activity against Pseudomonas aeruginosa PA200 assessed as inhibition of visible bacterial growth by CLSI based broth-microdilution method; assay type: functional
[4] = tested on: Pseudomonas aeruginosa; experiment: Antibacterial activity against Pseudomonas aeruginosa PA095 assessed as inhibition of visible bacterial growth by CLSI based broth-microdilution method; assay type: functional
[5] = tested on: Pseudomonas aeruginosa; experiment: Antibacterial activity against Pseudomonas aeruginosa PA100036 assessed as inhibition of visible bacterial growth by CLSI based broth-microdilution method; assay type: functional
[6] = tested on: Pseudomonas aeruginosa; experiment: Antibacterial activity against Pseudomonas aeruginosa PA101243 assessed as inhibition of visible bacterial growth by CLSI based broth-microdilution method; assay type: functional
[7] = tested on: Pseudomonas aeruginosa; experiment: Antibacterial activity against Pseudomonas aeruginosa PA114228 assessed as inhibition of visible bacterial growth by CLSI based broth-microdilution method; assay type: functional
[8] = tested on: Pseudomonas aeruginosa; experiment: Antibacterial activity against Pseudomonas aeruginosa PA259 assessed as inhibition of visible bacterial growth by CLSI based broth-microdilution method; assay type: functional
[9] = tested on: Pseudomonas aeruginosa; experiment: Antibacterial activity against Pseudomonas aeruginosa PAO1 assessed as inhibition of visible bacterial growth by CLSI based broth-microdilution method; assay type: functional
[10] = tested on: Acinetobacter baumannii; experiment: Antibacterial activity against Acinetobacter baumannii ATCC 17978 assessed as inhibition of visible bacterial growth by CLSI based broth-microdilution method; assay type: functional
[11] = tested on: Escherichia coli; experiment: Antibacterial activity against Escherichia coli ATCC 25922 assessed as inhibition of visible bacterial growth by CLSI based broth-microdilution method; assay type: functional
[12] = tested on: HEK293; experiment: Cytotoxicity against HEK293 cells assessed as reduction in cell viability at 162 uM; assay type: toxicity, cell-based; conditions: human, hek293, 162 µM
[13] = tested on: HepG2; experiment: Cytotoxicity against human HepG2 cells assessed as reduction in cell viability; assay type: functional
[14] = tested on: Pseudomonas aeruginosa; experiment: Synergistic antibacterial activity against Pseudomonas aeruginosa PAO1 assessed as fold change in tigecycline MIC by checkerboard analysis relative to Tigecycline alone; assay type: functional
[15] = tested on: HepG2; experiment: Cytotoxicity against human HepG2 cells assessed as reduction in cell viability at 400 uM; assay type: functional, cell-based
[16] = tested on: Pseudomonas aeruginosa; experiment: Synergistic antibacterial activity against Pseudomonas aeruginosa PAO1 assessed as fold change in doxycycline MIC by checkerboard analysis relative to doxycycline alone; assay type: functional
[17] = tested on: HepG2; experiment: Cytotoxicity against human HepG2 cells assessed as inhibition of cell vitality at 162 uM; assay type: functional; design: scale not given: the % may be the effect or the level left
[18] = tested on: HEK293; experiment: Cytotoxicity against HEK293 cells assessed as reduction in cell viability at 7 uM; assay type: toxicity, cell-based; conditions: human, hek293, 7 µM
[19] = tested on: Pseudomonas aeruginosa; experiment: Synergistic antibacterial activity against Pseudomonas aeruginosa PAO1 assessed as fold change in minocycline MIC by checkerboard analysis relative to minocycline alone; assay type: functional
[20] = tested on: Pseudomonas aeruginosa; experiment: Synergistic antibacterial activity against Pseudomonas aeruginosa PAO1 assessed as fold change in eravacycline MIC by checkerboard analysis relative to eravacycline alone; assay type: functional

Row | MIC [9] [mg/L] | MIC [10] [mg/L] | MIC [11] [mg/L] | SMILES | MIC [1] [mg/L] | MIC [2] [mg/L] | MIC [3] [mg/L] | MIC [4] [mg/L] | MIC [5] [mg/L] | MIC [6] [mg/L] | MIC [7] [mg/L] | MIC [8] [mg/L] | Activity [12] [%] | Activity [13] [%] | fold change (FC) [14] | Activity [15] | fold change (FC) [16] | Activity [17] [%] | Activity [18] | fold change (FC) [19] | fold change (FC) [20]
1 |  |  |  | C[C@H]1c2cccc(O)c2C(=O)C2=C(O)[C@]3(O)C(=O)C(C(N)=O)=C(O)[C@@H](N(C)C)[C@@H]3[C@@H](O)[C@@H]21 [DOXYCYCLINE ANHYDROUS] | > 512 | > 64 | 1 (≈ 2.25 µM) | 64 (≈ 144 µM) | > 128 | 16 (≈ 36 µM) | 64 (≈ 144 µM) | 64 (≈ 144 µM) |  |  |  |  |  |  |  |  | 
2 | > 120 | > 128 | > 128 | Cl.Cl.Cl.Cl.Cl.Cl.NC[C@H]1O[C@H](O[C@H]2[C@H](OCc3ccc(-c4ccc(CNC(=O)c5cn(C6CC6)c6cc(N7CCNCC7)c(F)cc6c5=O)cc4)cc3)[C@@H](O[C@H]3O[C@H](CO)[C@@H](O)[C@H](N)[C@H]3O)[C@H](N)C[C@@H]2N)[C@H](N)C[C@@H]1O |  |  |  |  |  |  |  |  | 27 | 88 | 16 | Active | 16 | 40 | Non-toxic | 16 | 16
3 |  |  |  | CN(C)c1cc(NC(=O)CNC(C)(C)C)c(O)c2c1C[C@H]1C[C@H]3[C@H](N(C)C)C(O)=C(C(N)=O)C(=O)[C@@]3(O)C(O)=C1C2=O [TIGECYCLINE] | 64 (≈ 109 µM) | 32 (≈ 54.6 µM) | 1 (≈ 1.71 µM) | 32 (≈ 54.6 µM) | 64 (≈ 109 µM) | 8 (≈ 13.7 µM) | 64 (≈ 109 µM) | 32 (≈ 54.6 µM) |  |  |  |  |  |  |  |  | 
4 | > 120 | > 128 | > 128 | Cl.Cl.Cl.Cl.Cl.Cl.NC[C@H]1O[C@H](O[C@H]2[C@H](OCCOCCOCCOCCNC(=O)c3cn(C4CC4)c4cc(N5CCNCC5)c(F)cc4c3=O)[C@@H](O[C@H]3O[C@H](CO)[C@@H](O)[C@H](N)[C@H]3O)[C@H](N)C[C@@H]2N)[C@H](N)C[C@@H]1O |  |  |  |  |  |  |  |  |  | 60 |  |  |  | 60 | Non-toxic |  | 
5 | > 120 | > 128 | > 128 | CC(=O)NCCCCCCCCCCCCO[C@@H]1[C@@H](O[C@H]2O[C@H](CO)[C@@H](O)[C@H](N)[C@H]2O)[C@H](N)C[C@H](N)[C@H]1O[C@H]1O[C@H](CN)[C@@H](O)C[C@H]1N.Cl.Cl.Cl.Cl.Cl |  |  |  |  |  |  |  |  |  |  | 1 |  | 8 |  |  | 4 | 
6 |  |  |  | CN(C)[C@@H]1C(O)=C(C(N)=O)C(=O)[C@@]2(O)C(O)=C3C(=O)c4c(O)c(NC(=O)CN5CCCC5)cc(F)c4C[C@H]3C[C@@H]12 [ERAVACYCLINE] | 64 (≈ 115 µM) | 32 (≈ 57.3 µM) | 0.5 (≈ 0.895 µM) | 32 (≈ 57.3 µM) | 32 (≈ 57.3 µM) | 8 (≈ 14.3 µM) | 16 (≈ 28.6 µM) | 32 (≈ 57.3 µM) |  |  |  |  |  |  |  |  | 
7 | > 120 | > 128 | > 128 | CCCCCCCCCCCCNC(=O)c1cn(C2CC2)c2cc(N3CCNCC3)c(F)cc2c1=O.Cl |  |  |  |  |  |  |  |  |  |  |  |  |  |  |  |  | 
8 | > 120 | > 128 | > 128 | Cl.Cl.Cl.Cl.Cl.Cl.NC[C@H]1O[C@H](O[C@H]2[C@H](OCCCCCCCCNC(=O)c3cn(C4CC4)c4cc(N5CCNCC5)c(F)cc4c3=O)[C@@H](O[C@H]3O[C@H](CO)[C@@H](O)[C@H](N)[C@H]3O)[C@H](N)C[C@@H]2N)[C@H](N)C[C@@H]1O |  |  |  |  |  |  |  |  |  | 69 | 4 |  | 4 | 55 | Non-toxic | 4 | 4
9 |  |  |  | CN(C)c1ccc(O)c2c1C[C@H]1C[C@H]3[C@H](N(C)C)C(O)=C(C(N)=O)C(=O)[C@@]3(O)C(O)=C1C2=O [MINOCYCLINE] | 256 (≈ 560 µM) | 128 (≈ 280 µM) | 0.5 (≈ 1.09 µM) | 64 (≈ 140 µM) | 128 (≈ 280 µM) | 8 (≈ 17.5 µM) | 256 (≈ 560 µM) | 128 (≈ 280 µM) |  |  |  |  |  |  |  |  | 

Row | SMILES | MIC [9] [mg/L] | MIC [10] [mg/L] | MIC [11] [mg/L] | MIC [1] [mg/L] | MIC [2] [mg/L] | MIC [3] [mg/L] | MIC [4] [mg/L] | MIC [5] [mg/L] | MIC [6] [mg/L] | MIC [7] [mg/L] | MIC [8] [mg/L] | Activity [12] [%] | Activity [13] [%] | fold change (FC) [14] | Activity [15] | fold change (FC) [16] | Activity [17] [%] | Activity [18] | fold change (FC) [19] | fold change (FC) [20]
10 | NC[C@H]1O[C@H](O[C@H]2[C@H](O)[C@@H](O[C@H]3O[C@H](CO)[C@@H](O)[C@H](N)[C@H]3O)[C@H](N)C[C@@H]2N)[C@H](N)C[C@@H]1O [TOBRAMYCIN] | 0.5 (≈ 1.07 µM) | 0.5 (≈ 1.07 µM) | 2 (≈ 4.28 µM) |  |  |  |  |  |  |  |  |  |  |  |  |  |  |  |  | 
